Article PMC4198181, “Gold(I) Complexes of 9-Deazahypoxanthine as Selective Antitumor and Anti-Inflammatory Agents” (PLoS ONE, 2014)

What was measured:
[1] = test system: primary culture of human hepatocytes (HEP220); test: MTT in vitro cytotoxicity, primary human hepatocytes; assay type: cell-based; settings: for IC50: 24 h treatment, MTT, read-out: IC50±S.E., HEP220 (healthy human hepatocytes)
Method: (§1) In vitro cytotoxic activity was determined by the MTT assay in human breast adenocarcinoma (MCF7; ECACC no. 86012803), human osteosarcoma (HOS; ECACC no. 87070202), lung carcinoma (A549; ECACC no. 86012804), malignant melanoma (G361; ECACC no. 88030401), cervix epitheloid carcinoma (HeLa; ECACC no. 93021013), ovarian carcinoma (A2780; ECACC no. 93112519), cisplatin-resistant ovarian carcinoma (A2780R; […] ECACC no 105092802) cancer cell lines, purchased from European Collection of Cell Cultures (ECACC). […] The primary culture of human hepatocytes (HEP220, batch number HEP220819) was obtained from Biopredic International (France). The culture medium was Williams and HAM's F-12 (1∶1) supplemented with penicillin, streptomycin, ascorbic acid, linoleic acid, holo-transferin, ethanolamine, glucagon, insulin, dexamethasone, pyruvate, glucose, glutamine, amphotericin. The medium was enriched for plating with 2% foetal calf serum (v/v). The medium was exchanged for a serum-free medium the day after and the culture was stabilized for additional 24 h. Thereafter, the cells were ready for treatments. […] The MTT assay was performed spectrophotometrically at 540 nm (TECAN, Schoeller Instruments LLC). The cytotoxicity data were expressed as the percentage of viability, where 100% represented the treatments with vehicle (0.1% DMF or 0.1% DMSO). The cytotoxicity data from the cancer cell lines were acquired from three independent experiments (conducted in triplicate) using cells from different passages. The IC50 values were calculated from viability curves. The results are presented as arithmetic means±standard error of the mean (S.E.).

[2] = test system: THP-1 monocytic leukaemia cells; test: WST-1 in vitro cytotoxicity, THP-1; assay type: cell-based, human; settings: 24 h treatment, WST-1, 0.16–10.00 µM; read-out: IC50±S.E., THP-1
Method: Before the in vitro anti-inflammatory testing, in vitro cytotoxicity on human monocytic leukaemia cells (THP-1, ECACC no. 88081201) was determined using the WST-1 assay. The THP-1 cells (floating monocytes, 500 000 cells/mL) were incubated in 100 µL of the serum-free RPMI 1640 medium and seeded into 96-well plates in triplicate at 37°C. Measurements were taken 24 h after the treatment with the tested compounds dissolved in 0.1% DMSO in the concentration range of 0.16–10.00 µM. Viability was determined by the WST-1 test according to the manufacturer's manual. The amount of the formed formazan (which correlates to the number of metabolically active cells in the culture) was calculated as a percentage of the control cells, which were treated only with 0.1% DMSO and was set-up as 100%. The IC50 values of the tested compounds were calculated from the obtained data. The WST-1 assay was performed spectrophotometrically at 440 nm (FLUOstar Omega, BMG Labtech).
The cytotoxicity data were expressed as the percentage of viability, where 100% represented the treatments with vehicle (0.1% DMF or 0.1% DMSO). The cytotoxicity data from the cancer cell lines were acquired from three independent experiments (conducted in triplicate) using cells from different passages. The IC50 values were calculated from viability curves. The results are presented as arithmetic means±standard error of the mean (S.E.). The significance of the differences between the results was assessed by the ANOVA analysis with p<0.05 considered to be significant (QC Expert 3.2, Statistical software, TriloByte Ltd., Pardubice, Czech Republic).

[3] = test system: A2780R ovarian carcinoma cells resistant to cisplatin; test: MTT in vitro cytotoxicity, A2780R; assay type: cell-based, human; settings: 24 h treatment, MTT; read-out: IC50±S.E., A2780R
Method: as §1

[4] = test system: TNF-α mRNA; test: TNF-α gene expression by RT-qPCR in LPS-stimulated THP-1 macrophages; assay type: cell-based, human; settings: 300 nM, 2 h after LPS, normalised to β-actin
Method: For the determination of biological activity, we used the human monocytic leukaemia cell line THP-1 (ECACC, Salisbury, UK). The cells were cultivated at 37°C in the RPMI 1640 medium supplemented with 2 mM L-glutamine, 10% FBS, 100 U/mL of penicillin and 100 µg/mL of streptomycin in a humidified atmosphere containing 5% CO2. Stabilized cells (3rd–15th passage) were split into microtitration plates to get a concentration of 500 000 cells/mL and the differentiation to macrophages was induced by phorbol myristate acetate (PMA) dissolved in dimethyl sulfoxide (DMSO) at the final concentration of 50 ng/ml, and the cells were incubated for 24 h. In comparison with monocytes, differentiated macrophages tend to adhere to the bottoms of the cultivation plates. For next 24 h the cells were incubated with a fresh complete RPMI medium, i.e. containing antibiotics and FBS, without PMA. The medium was then aspirated, and the cells were washed with PBS and cultivated for next 24 hours in serum-free RPMI 1640 medium. These prepared macrophages were used for the detection of inflammatory response.
In the order to evaluate the expression of TNF-α, IL-1β, and β-actin mRNA, total RNA was isolated directly from the LPS-stimulated THP-1 cells. THP-1 macrophages were pretreated with compounds 2, 5, and Auranofin at the concentration of 300 nM or the vehicle (0.1% DMSO) only. After 1 h of the incubation, the inflammatory response was induced by LPS [except for the control cells (CTRL)]. After 2 h of the incubation with LPS, the medium was aspirated and the total RNA was isolated directly from the cells in cultivation plates using a RealTime Ready Cell Lysis Kit (Roche), according to the manufacturer's instructions.
The gene expression was quantified by two-step reverse-transcription quantitative (real-time) PCR (RT-qPCR). The reverse transcription step was performed by Transcriptor Universal cDNA Master using cell lysate as a template. […] The results were normalized to the amount of ROX reference dye, and the change in gene expression was determined by the 2^−ΔΔCT method. […]

| SMILES | IC50 [1] [µM] | times lower cytotoxicity against healthy human cells (HEP220) than cancer cell lines ([1]; complex 2: MCF7 vs. HEP220) [times] | IC50 [2] [µM] | IC50 [3] [µM] | effect on TNF-α mRNA transcription [4] |
| --- | --- | --- | --- | --- | --- |
| CC(C)Oc1ncnc2cc[n]([Au])c12.c1ccc(P(c2ccccc2)c2ccccc2)cc1 [complex 2, [Au(L2)(PPh3)]] | 18.5 ± 1.5 | ~30 | 0.8 ± 0.1 | 5.3 ± 0.4 | significantly reduce the transcription |
| [Au][n]1ccc2ncnc(OCCc3ccccc3)c21.c1ccc(P(c2ccccc2)c2ccccc2)cc1 [complex 5] | 19 ± 1.8 |  | 1.4 ± 0.1 | 5 ± 0.3 | significantly reduce the transcription |
